Patent US20210290676A1, “IMPROVING THE EFFICACY AND SAFETY OF ADOPTIVE CELLULAR THERAPIES” (University of Southern California, priority 2018, published 2021)

Legend:
Assay type in all cases: cell-based, human
[1] = tested on: Pgp+ (DiOC2(3)-dye effluxing) T cells; test: DiOC2(3) dye efflux flow cytometry of inhibitor-treated T cells; conditions: treatment for 13 days, IL2 + CD3 and CD28 antibodies
Experimental: (§1) The use of P-glycoprotein (Pgp)-mediated efflux of DiOC2(3) to isolate stem like T cells for adoptive cellular therapy has been described in application no. […] In the following examples, DiOC2(3) staining was used to study the effect of different inhibitors on generation of stem like T cells.
(§2) DAY 0: Blood was obtained from unidentified donor. After RBC lysis, PBMC were collected using Ficoll-Hypaque separation. […] T cells were cultured in three different conditions: • 1. XVIVO 15 medium (Lonza) with IL2 50 IU/ml, CD3 antibody (30 ng/ml) and CD28 antibody (30 ng/ml). • 2. XVIVO 15 medium (Lonza) with CD3 antibody (30 ng/ml) and CD28 antibody (30 ng/ml). • 3. XVIVO 15 medium (Lonza) with IL2 50 IU/ml DAY 1: Cells were plated in a 6-well plate at a density of 1 million cells in 2 ml/of media (as described above) and treated with different inhibitors
(§3) The cell growth medium was changed in 6-well plates and fresh drugs were added at same concentration for one more week.
(§4) […] (DAY 11): Culture medium was changed and fresh drugs were added in 6-well plates.
(§5) Subsequently, cells were washed with RPMI medium and dye was effluxed at 37° C. for 90 min. Cells were washed with […], stained with CD62L-APC (5 μl/100 μl/sample) at 4° C. for 1 h, washed twice with PBS+1% FBS and analyzed on flow cytometer to check if these drugs treatment leads to increase in Pgp+/CD62L positive population.
(§6) Day 0: Blood was obtained from unidentified donor. After RBC lysis, PBMC were collected using Ficoll-Hypaque separation. 200 million T cells were isolated from PBMCs using CD3 microbeads. T cells were cultured overnight in XVIVO 15 medium (Lonza) with IL2 (50 IU/ml), 30 ng/ml of CD3 and CD28 antibodies
(§7) Day 1: Cells were plated in 24-well plates at a density of 0.3 million cells/ml in each well and treated with different drugs.
(§8) On day 7, culture medium was replaced with fresh medium with fresh drugs.
(§9) On day 13, culture medium was replaced with fresh medium and fresh drugs. Half of the cells were transferred to 6-well plates.
(§10) Day 14: An aliquot of cells with all the treatments listed above (for 13 days) was used to stain the cells with DiOC2(3) (60 ng/ml in RPMI medium) at 4° C. for 40 min, washed with RPMI medium, DiOC2(3) dye was effluxed at 37° C. for 90 min, washed with PBS+1% FBS, stained with CD62L-APC antibody. CD62L is a marker for resting T cells. (5 μl/100 μl/sample) at 4° C. for 1 h, washed twice with PBS+1% FBS and analyzed on flow cytometer to check if these drugs are affecting the dye-effluxing or Pgp+ (i.e., DiOC2(3)-dull) T-cell population.

[2] = tested on: Pgp+ (DiOC2(3)-dye effluxing cells) and CD62L+ T cells; test: DiOC2(3) dye efflux plus CD62L-APC staining, flow cytometry of inhibitor-treated T cells; conditions: treatment for 13 days, IL2 + CD3 and CD28 antibodies
Experimental: as §1, §2, §3, §4, §5, §6, §7, §8, §9, §10

[3] = tested on: CD8+CD45RA+CCR7+CD62L+ T cells; test: Flow cytometry for CD8, CD45RA, CCR7 and CD62L on inhibitor-treated T cells; conditions: cells cultured for 14 days
Experimental: as §2
(§11) A second aliquot of the cells cultured for 13 days with all the treatments listed above (1-21) was washed with PBS+1% FBS, stained with CD8-PerCP, CD45RA-FITC, CCR7-PE and CD62L-APC (5% Y/100 μl/sample for each of 4 antibodies) at 4° C. for 1 h, washed twice with PBS+100 FBS and analyzed on flow cytometer to check if these drugs are enriching T stem cells showing surface expression of CD8+CD45RA+CCR7+CD62L+.
as §6, §7, §8, §9
as §11, with “14” for “13”, “above” for “above (1-21)”, “(5 ul/100 ul/sample” for “(5% Y/100 μl/sample”, “PBS+1%” for “PBS+100”, “enriching for” for “enriching”, “T” for “T stem”

[4] = tested on: CD45RA+CCR7+CD62L+ T cells; test: Flow cytometry for CD45RA, CCR7 and CD62L on inhibitor-treated T cells (all T cells); conditions: cells cultured for 14 days
Experimental: as §2, §11, §6, §7, §8, §9
as §11, with “14” for “13”, “above” for “above (1-21)”, “(5 ul/100 ul/sample” for “(5% Y/100 μl/sample”, “PBS+1%” for “PBS+100”, “enriching for” for “enriching”, “T” for “T stem”

SMILES	p2: pgp+ from Live cells ([1]; 1 μM)	p2: pgp+ from Live cells ([1]; 2 μM)	p5: double +ve pgp+ and CD62L-APC+ from Live cells ([2]; 1 μM)	p5: double +ve pgp+ and CD62L-APC+ from Live cells ([2]; 2 μM)	GATE P4 CD8(PerCP)+, CD45RA(FITC)+, CCR7 (PE)+, CD62L(APC) ([3]; 1 μM) [%]	GATE P4 CD8(PerCP)+, CD45RA(FITC)+, CCR7 (PE)+, CD62L(APC) ([3]; 2 μM) [%]	GATE P6 CD45RA(FITC)+, CCR7 (PE)+, CD62L(APC) ([4]; 1 μM) [%]	GATE P6 CD45RA(FITC)+, CCR7 (PE)+, CD62L(APC) ([4]; 2 μM) [%]	p2: pgp+ from Live cells ([1]; 500 nM)	p5: double +ve pgp+ and CD62L-APC+ from Live cells ([2]; 500 nM)	GATE P4 CD8(PerCP)+, CD45RA(FITC)+, CCR7 (PE)+, CD62L(APC) ([3]; 500 nM) [%]	GATE P6 CD45RA(FITC)+, CCR7 (PE)+, CD62L(APC) ([4]; 500 nM) [%]
Cc1cc(C)c(CNC(=O)c2cc(-c3ccc(N4CCN(C)CC4)nc3)cc3c2c(C)cn3C(C)C)c(=O)[nH]1 [GSK503]	47.87	56.13	15.79	19.99	75.24	75.8	63.54	62.62				
CCn1cc(-c2cccc(C(F)(F)F)c2)c2sc(C(=N)NC3CCS(=O)(=O)CC3)cc2c1=O [IBRD9]	31.69		7.26		79.18		67.77		21.12	4.51	74.3	61.53
